From US11312722B2, “Hsp90 inhibitors and uses thereof” (TRUSTEES OF BOSTON UNIVERSITY, priority 2019, dated 2022)
Converted amounts (≈) assume the structure as drawn. Read-outs that look alike come from different tables or passages of the source.

Legend:
[1] = target: T1, C. neoformans Hsp90 NBD (Cryptococcus neoformans, UniProt J9VVA4); assay: Protein thermal shift assay, C. neoformans Hsp90 NBD; format: binding; settings: equimolar protein and ligand (10 μM)
Experimental: […]. Using recombinant proteins, assay-independent nanomolar inhibitory constants (Ki) were defined for these compounds. Binding of the compounds to their relevant NBD by thermal shift denaturation assays was also confirmed. Thermal shift assays were performed under saturating ligand conditions, i.e. equimolar concentrations (10 μM) of protein and ligand. As a result, they can provide only qualitative evidence of target binding, but not a quantitative measurement of ligand affinity. […] […]. C. neoformans or C. albicans Hsp90 NBD was combined with equimolar concentrations of the indicated bioactive inhibitors (10 μM) or DMSO control, in technical triplicates. The protein was heated from 25 to 98.6° C. at 0.2° C./5 s in the presence of Sypro Orange dye. All compounds induce an increase in melting temperature relative to the DMSO control, reported as ΔTm.
Protein thermal shift assays. Thermal melting curves were determined using a Protein Thermal Shift Kit (ThermoFisher #4462263), employing a CFX384 Real-Time PCR System (Bio-Rad, C1000 Touch Thermal Cycler). Reactions were performed in a final volume of 10 μL, and contained purified C. albicans or C. neoformans Hsp90 NBD diluted to 250 μg/mL in Buffer HBS-P (GE Healthcare Life Sciences, 0.01 M HEPES pH 7.4, 0.15 M NaCl, 0.005% v/v Surfactant P20) with 10 μM synthetic analog or DMSO control, and 1× Sypro Orange dye solution. Samples were prepared in triplicate in 384-well white plates (Bio-Rad; HSP3805). The instrument was set to melt curve, step 1 (25° C., 2 min) and step 2 (ramp to 98.6° C., increasing 0.2° C. per 5 s cycle). The inflection point of each curve is defined as the protein melting temperature (Tm). Temperature shift, ΔTm, was recorded as the difference between the Tm of the fungal Hsp90 NBD with compound minus Tm of the protein without compound.

[2] = target: Hsp90 (C. albicans whole cell lysate) (Candida albicans (strain SC5314 / ATCC MYA-2876) (Yeast), UniProt P46598); assay: biochemical; format: binding; settings: Yes/No call
Experimental: (§1) All analogs were assessed for Hsp90 binding affinity using a fluorescence polarization (FP)-based equilibrium competition assay in fungal and human whole cell lysates. […] Using lysates, the relative potency and selectivity for fungal Hsp90 was measured versus the entire ensemble of human Hsp90 isoforms in microplate format using small amounts of test materials. […] Thermal shift assays were performed under saturating ligand conditions, i.e. equimolar concentrations (10 μM) of protein and ligand. As a result, they provided qualitative evidence of target binding, but not a quantitative measurement of ligand affinity. For quantitation, a ligand dissociation constant (Ki) for key compounds was also determined using purified NBDs in FP assays and KD measurements were made by surface plasmon resonance (SPR) using a Biacore instrument. Finally, all analogs were assessed for whole cell antifungal activity against the pathogens C. albicans and C. neoformans.
(§2) FP assays. Whole cell lysates were prepared for FP assays as described previously. Total protein concentration of human and yeast lysates was determined by Bradford assay. […] Serial dilutions of test Hsp90 inhibitors were then assayed under these same conditions to monitor loss of fluorescence polarization as an indicator of probe displacement from Hsp90. […] Titrations of test compound in 25 μL of binding buffer (supplemented with 0.1 mg/mL bovine gamma globulin), were mixed with an equal volume of freshly prepared whole-cell lysate spiked with Cy3-GdA (0.1 nM). Plates were incubated at room temperature for 4.5 h to achieve equilibrium binding for the geldanamycin-based probe. […] Non-linear 4-parameter curve fitting of raw displacement data was performed in GraphPad Prism 5.0 to determine EC50 values as a measure of relative Hsp90-binding affinity. Results were normalized to the value determined for GdA in lysate of each cell type.
(§3) Statistical methods. […] In calculating the error of selectivity determinations, the fractional error of measurements in each species was summed to yield a composite error for the derived ratio.

[3] = test system: C. neoformans (Strain H99); assay: Antifungal sensitivity testing (MIC), C. neoformans H99; format: cell-based
Experimental: Color scale bar: no growth inhibition (green) to complete inhibition (black). Each shaded box represents the mean of technical duplicates. The experiment was repeated as an independent biological replicate to confirm results.
Minimum inhibitory concentration (MIC) value for compounds against C. neoformans (Strain H99) was determined in dose-response format, in technical duplicate. Experiments were conducted in RPMI medium at 37° C. for 48 h. Relative viable cell number was measured by standard dye reduction (resazurin) assay.
Yeast strains and culture conditions. Strains used in this study were C. albicans CaCi2 (clinical isolate 2), [58] SC5314, [59] and C. neoformans H99. […] Active cultures were maintained on solid (2% agar) yeast extract peptone (YPD, 1% yeast extract, 2% bactopeptone, 2% glucose) at 4° C. for no more than one month.
Antifungal sensitivity testing. […] Each compound was tested in duplicate in at least two independent experiments. […] Plates were photographed after 24 h of incubation at 30° C.

[4] = mouse liver microsomes; for % remaining at 15 min (NADPH-free): NADPH-free control; for % remaining at 15 min / % remaining at 60 min: with NADPH
[5] = in vitro; settings: both, CD-1, mouse; for CLint scaled at 1 μM: liver microsomes; for half-life: microsomes
[6] = target: T1, C. neoformans Hsp90 NBD; assay: biochemical; format: binding; settings: SPR, 25° C., read-out: Biacore KD
Experimental: SPR assays. For SPR experiments, Hsp90 NBD expression constructs were modified to encode a C-terminal AviTag™ for site-specific on-column biotinylation with a BirA biotin-ligase kit (Avidity LLC; BirA-500). SPR experiments were performed on a Biacore T200 instrument at 25° C. Biotinylated Hsp90 NBD was diluted to 40 μg/mL and immobilized on a streptavidin chip (Sensor Chip SA, GE Healthcare) at a density of 2000-2500 response units (RU) on the biosensor surface. […] Resulting sensorgrams were analyzed with a fit to a 1:1 binding model, using BIA evaluation software.

[7] = target: Hsp90 (C. neoformans whole cell lysate) (Cryptococcus neoformans, UniProt J9VVA4); format: binding; settings: Yes/No call
Experimental: as §1, §2, §3

[8] = Cryptococcus neoformans; read-out: C. neo MIC80
[9] = Cryptococcus neoformans; read-out: C. neo MIC90
[10] = Cryptococcus neoformans, read-out: C. neo MIC80
[11] = Cryptococcus neoformans, read-out: C. neo MIC90

T1 sequence (J9VVA4 1-699): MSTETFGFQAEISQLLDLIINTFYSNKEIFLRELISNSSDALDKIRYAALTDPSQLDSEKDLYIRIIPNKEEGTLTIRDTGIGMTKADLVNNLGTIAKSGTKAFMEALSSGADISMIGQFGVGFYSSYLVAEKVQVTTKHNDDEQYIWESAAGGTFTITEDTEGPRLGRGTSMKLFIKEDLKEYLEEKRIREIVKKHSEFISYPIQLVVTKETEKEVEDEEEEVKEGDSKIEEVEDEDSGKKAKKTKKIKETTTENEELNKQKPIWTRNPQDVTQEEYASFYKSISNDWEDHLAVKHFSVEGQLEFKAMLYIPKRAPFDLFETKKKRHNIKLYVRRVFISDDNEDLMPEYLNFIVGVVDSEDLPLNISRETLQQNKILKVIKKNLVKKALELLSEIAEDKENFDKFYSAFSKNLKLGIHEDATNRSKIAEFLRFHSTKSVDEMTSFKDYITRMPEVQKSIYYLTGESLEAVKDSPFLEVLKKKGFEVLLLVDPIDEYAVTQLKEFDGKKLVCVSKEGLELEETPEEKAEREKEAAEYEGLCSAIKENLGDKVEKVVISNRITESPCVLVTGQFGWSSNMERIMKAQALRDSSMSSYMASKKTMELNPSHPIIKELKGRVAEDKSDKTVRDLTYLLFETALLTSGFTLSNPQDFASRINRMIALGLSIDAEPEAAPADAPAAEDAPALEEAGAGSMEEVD
Chain of Hsp90 (C. neoformans whole cell lysate) (J9VVA4 1-699): as above

Structure (SMILES)	C. neoformans NBD ΔTm [1]	C. alb Active (biochemical) [2]	MIC80 [3, 8]	MIC90 [3, 9]	% remaining at 15 min (NADPH-free) [4]	% remaining at 15 min [4]	% remaining at 60 min [4]	CLint scaled at 1 μM [5]	half-life [5]	other results
COc1ccc(Cn2nc(-c3ccccc3)cc2Nc2cc(O)cc(O)c2C(=O)N2Cc3cccc(F)c3C2)cc1 [Compound 27, 4-(4-Fluoro-2,3-dihydro-1H-isoindole-2-carbonyl)-5-((1-((4-methoxyphenyl)methyl)-3-phenyl-1H-pyrazol-5-yl)amino)benzene-1,3-diol]	12 °C	–	–	–	–	–	–	–	–	–
CC(C)c1ccc(Cn2nccc2Nc2cc(O)cc(O)c2C(=O)N2Cc3ccccc3C2)cc1 [Compound 83, (2,4-Dihydroxy-6-((1-(4-isopropylbenzyl)-1H-pyrazol-5-yl)amino)phenyl)(isoindolin-2-yl)methanone]	–	Yes	> 25 µM	> 25 µM	109.1%	3.4%	1.8%	1770 mL/min/kg	3.1 min	–
Cn1nc(-c2ccccc2)cc1Nc1cc(O)cc(O)c1C(=O)N1Cc2ccccc2C1 [Compound 91, 4-(2,3-Dihydro-1H-isoindole-2-carbonyl)-5-((1-methyl-3-phenyl-1H-pyrazol-5-yl)amino]benzene-1,3-diol]	11 °C	Yes	> 25 µM	> 25 µM	–	–	–	–	–	–
Cc1cccc(-c2cc(Nc3cc(O)cc(O)c3C(=O)N3Cc4cn[nH]c4C3)n(C)n2)c1 [Compound 111, 5-((1-Methyl-3-(3-methylphenyl)-1H-pyrazol-5-yl)amino)-4-(1H,4H,5H,6H-pyrrolo[3,4-c]pyrazole-5-carbonyl)benzene-1,3-diol]	–	Yes	> 25 µM	> 25 µM	115.3%	20.2%	1.8%	582 mL/min/kg	9.4 min	–
COc1cccc(-c2cc(Nc3cc(O)cc(O)c3C(=O)N3Cc4ccccc4C3)n(C)n2)c1 [Compound 112, 4-(2,3-Dihydro-1H-isoindole-2-carbonyl)-5-((3-(3-methoxyphenyl)-1-methyl-1H-pyrazol-5-yl)amino)benzene-1,3-diol]	–	Yes	–	–	99.3%	3.7%	0%	1740 mL/min/kg	3.2 min	Kd [6]: 74 nM; MIC80 [3, 10]: > 25 µM; MIC90 [3, 11]: > 25 µM
Cn1nc(-c2ccc(C(C)(C)C)cc2)cc1Nc1cc(O)cc(O)c1C(=O)N1Cc2cn[nH]c2C1 [Compound 129, 5-((3-(4-tert-Butylphenyl)-1-methyl-1H-pyrazol-5-yl)amino)-4-(1H,4H,5H,6H-pyrrolo[3,4-c]pyrazole-5-carbonyl)benzene-1,3-diol]	–	–	> 25 µM	> 25 µM	97.9%	21.1%	0.5%	847 mL/min/kg	6.4 min	C. neo Active (biochemical) [7]: Yes; C. neo Active (cells) ([3]; Yes/No call): No
Cn1nc(-c2ccc(OC(F)(F)F)cc2)cc1Nc1cc(O)cc(O)c1C(=O)N1Cc2cccnc2C1 [Compound 131, 5-((1-Methyl-3-(4-(trifluoromethoxy)phenyl)-1H-pyrazol-5-yl)amino)-4-(5H,6H,7H-pyrrolo[3,4-b]pyridine-6-carbonyl)benzene-1,3-diol]	–	–	–	–	104.1%	35.5%	3.9%	387 mL/min/kg	–	Kd [6]: 380 nM; MIC80 [3, 10]: > 25 µM; MIC90 [3, 11]: > 25 µM; C. neo Active (cells) ([3]; Yes/No call): No
Cn1nc(-c2ccc(OC(F)(F)F)cc2)cc1Nc1cc(O)cc(O)c1C(=O)N1Cc2cn[nH]c2C1 [Compound 132, 5-((1-Methyl-3-(4-(trifluoromethoxy)phenyl)-1H-pyrazol-5-yl)amino)-4-(1H,4H,5H,6H-pyrrolo[3,4-c]pyrazole-5-carbonyl)benzene-1,3-diol]	–	–	–	–	71.7%	63.0%	20.6%	176 mL/min/kg	–	Kd [6]: 214 nM; MIC80 [3, 10]: > 25 µM; MIC90 [3, 11]: > 25 µM; C. neo Active (cells) ([3]; Yes/No call): No

Further lines, with some results ahead:

C. neoformans NBD ΔTm [1]	Structure (SMILES)	C. alb Active (biochemical) [2]	MIC80 [3, 8]	MIC90 [3, 9]	% remaining at 15 min (NADPH-free) [4]	% remaining at 15 min [4]	% remaining at 60 min [4]	CLint scaled at 1 μM [5]	half-life [5]	other results
14 °C	COc1ccc(Cn2nc(-c3ccccc3)cc2Nc2cc(O)cc(O)c2C(=O)N2Cc3ccc(F)cc3C2)cc1 [Compound 29, 4-(5-Fluoro-2,3-dihydro-1H-isoindole-2-carbonyl)-5-((1-((4-methoxyphenyl)methyl)-3-phenyl-1H-pyrazol-5-yl)amino)benzene-1,3-diol]	–	–	–	–	–	–	–	–	–
14 °C	COc1ccc(Cn2nc(C(C)(C)C)cc2Nc2cc(O)cc(O)c2C(=O)N2Cc3ccccc3C2)cc1 [Compound 49, (2-((3-(tert-Butyl)-1-(4-methoxybenzyl)-1H-pyrazol-5-yl)amino)-4,6-dihydroxyphenyl)(isoindolin-2-yl)methanone]	–	–	–	–	–	–	–	–	–
11 °C	CC(C)c1cc(Nc2cc(O)cc(O)c2C(=O)N2Cc3ccccc3C2)n(C)n1 [Compound 100, 4-(2,3-Dihydro-1H-isoindole-2-carbonyl)-5-((1-methyl-3-(propan-2-yl)-1H-pyrazol-5-yl)amino)benzene-1,3-diol]	–	–	–	–	–	–	–	–	–
12 °C	Cc1ccccc1-c1cc(Nc2cc(O)cc(O)c2C(=O)N2Cc3ccccc3C2)n(C)n1 [Compound 106, 4-(2,3-Dihydro-1H-isoindole-2-carbonyl)-5-((1-methyl-3-(2-methylphenyl)-1H-pyrazol-5-yl)amino)benzene-1,3-diol]	Yes	< 25 µM	25 µM (≈ 11 µg/mL)	–	–	–	–	–	MIC ([3]; Cryptococcus neoformans; C. neoformans H99, RPMI medium, 37° C., 48 h, resazurin): < 10 µM
0 °C	Cn1nc(-c2ccc(C(C)(C)C)cc2)cc1Nc1cc(O)cc(O)c1C(=O)N1Cc2ccccc2C1 [Compound 127, 5-((3-(4-tert-Butylphenyl)-1-methyl-1H-pyrazol-5-yl)amino)-4-(2,3-dihydro-1H-isoindole-2-carbonyl)benzene-1,3-diol]	–	–	–	–	–	–	–	–	–
